Several values for one entry are separate records, joined by “and”; a condition that tells them apart may be missing. Equal values may be shown once. Inconclusive results and toxic doses are left out. The calls were made as follows: active = survival T/C of 150% or more; inactive = T/C below 125% in these data.
System: P388 leukemia ip, CD2F1 mice, survival T/C
Assay: NCI In Vivo Anticancer Drug Screen. Data for tumor model P388 Leukemia (intraperitoneal) in CD2F1 (CDF1) mice
Settings: endpoint: median survival time, higher = longer survival
Outline: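 Mice carrying the transplanted tumor received test compound or vehicle. Survival was recorded in each group, and the value is the treated-group measurement divided by that of the vehicle-treated control group.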

[1] = dose: 3.13 mg/kg/injection, schedule: Q04DX003 (ip), vehicle: water
[2] = dose: 12.5 mg/kg/injection, schedule: Q04DX003 (ip), vehicle: water
[3] = dose: 25.0 mg/kg/injection, schedule: Q04DX003 (ip), vehicle: water
[4] = dose: 50.0 mg/kg/injection, schedule: Q04DX003 (ip), vehicle: water
[5] = dose: 6.25 mg/kg/injection, schedule: Q01DX009 (ip), vehicle: Klucel (hydroxypropylcellulose) (HPC)
[6] = dose: 12.5 mg/kg/injection, schedule: Q01DX009 (ip), vehicle: Klucel (hydroxypropylcellulose) (HPC)
[7] = dose: 200.0 mg/kg/injection, schedule: Q01DX009 (ip), vehicle: Klucel (hydroxypropylcellulose) (HPC)
[8] = dose: 50.0 mg/kg/injection, schedule: Q01DX009 (ip), vehicle: Klucel (hydroxypropylcellulose) (HPC)
[9] = dose: 100.0 mg/kg/injection, schedule: Q01DX009 (ip), vehicle: Klucel (hydroxypropylcellulose) (HPC)
[10] = dose: 25.0 mg/kg/injection, schedule: Q01DX009 (ip), vehicle: saline
[11] = dose: 50.0 mg/kg/injection, schedule: Q01DX009 (ip), vehicle: saline
[12] = dose: 100.0 mg/kg/injection, schedule: Q01DX009 (ip), vehicle: saline
[13] = dose: 100.0 mg/kg/injection, schedule: Q01DX001 (ip), vehicle: saline with Tween-80
[14] = dose: 200.0 mg/kg/injection, schedule: Q01DX001 (ip), vehicle: saline with Tween-80
[15] = dose: 50.0 mg/kg/injection, schedule: Q01DX005 (ip), vehicle: Klucel (hydroxypropylcellulose) (HPC)
[16] = dose: 100.0 mg/kg/injection, schedule: Q01DX005 (ip), vehicle: Klucel (hydroxypropylcellulose) (HPC)
[17] = dose: 200.0 mg/kg/injection, schedule: Q01DX005 (ip), vehicle: Klucel (hydroxypropylcellulose) (HPC)

Measured: T/C

Cc1csc(NC(=S)NC(=O)c2ccccc2)n1
inactive: dose: 100.0 mg/kg/injection, schedule: Q04DX003 (ip), vehicle: saline with Tween-80 91 % of control | dose: 200.0 mg/kg/injection, schedule: Q04DX003 (ip), vehicle: saline with Tween-80 90 % of control

CCOC(=O)C(=O)C1Cc2ccc3ccc(OC)cc3c2C1=O (stereo unspecified)
inactive: dose: 12.5 mg/kg/injection, schedule: Q01DX009 (ip), vehicle: distilled water + Tween-80 109 % of control | dose: 25.0 mg/kg/injection, schedule: Q01DX009 (ip), vehicle: distilled water + Tween-80 112 % of control | dose: 50.0 mg/kg/injection, schedule: Q01DX009 (ip), vehicle: distilled water + Tween-80 102 % of control | dose: 100.0 mg/kg/injection, schedule: Q01DX009 (ip), vehicle: distilled water + Tween-80 94 % of control | dose: 200.0 mg/kg/injection, schedule: Q01DX009 (ip), vehicle: distilled water + Tween-80 102 % of control

COc1cccc2c1C(=O)c1c(O)c3c(c(O)c1C2=O)C(OC)C(O)(C(C)=O)CC3OC1CC(N)C(O)C(C)O1 (stereo unspecified)
inactive: [1] 100 % of control | dose: 6.25 mg/kg/injection, schedule: Q04DX003 (ip), vehicle: water 100 % of control | [2] 108 % of control | [3] 115 % of control | [4] 115 % of control

CC(C)CCCC(C)C1CCC2C3CCC4CC(=O)C(C5(O)C(=O)Nc6ccccc65)CC4(C)C3CCC12C (stereo unspecified)
inactive: [5] 95 % of control | [6] 95 % of control | [7] 90 % of control

Cc1ccc2c(c1)sc1nnc(C)n12
inactive: [8] 114 % of control | [9] 97 % of control

CC(=O)CC1(O)CCCC1
inactive: dose: 60.0 mg/kg/injection, schedule: Q01DX005 (ip), vehicle: saline 98 % of control | dose: 120.0 mg/kg/injection, schedule: Q01DX005 (ip), vehicle: saline 105 % of control | dose: 240.0 mg/kg/injection, schedule: Q01DX005 (ip), vehicle: saline 100 % of control

O=c1cccc(C(Cl)(Cl)Cl)o1
inactive: dose: 30.0 mg/kg/injection, schedule: Q01DX005 (ip), vehicle: saline + Tween-80 + alcohol 105 % of control | dose: 60.0 mg/kg/injection, schedule: Q01DX005 (ip), vehicle: saline + Tween-80 + alcohol 104 % of control and 105 % of control | dose: 120.0 mg/kg/injection, schedule: Q01DX005 (ip), vehicle: saline + Tween-80 + alcohol 105 % of control and 97 % of control

COc1cccc2c1C(=O)c1c(O)c3c(c(O)c1C2=O)[C@@H](OC)[C@@](O)(C(=O)CO)C[C@@H]3OC1CC(N)C(O)C(C)O1 (stereo partly specified)
inactive: [1] 108 % of control and 123 % of control | [2] 115 % of control | [3] 106 % of control and 115 % of control | [4] 104 % of control

Cc1cc(C)c(S(=O)(=O)n2ccnc2)c(C)c1
inactive: [10] 111 % of control | [11] 97 % of control | [12] 103 % of control | dose: 200.0 mg/kg/injection, schedule: Q01DX009 (ip), vehicle: saline 106 % of control

O=C(/C=C/c1ccccc1OCc1cc2ccccc2nc1Cl)c1ccccc1
inactive: [13] 87 % of control | [14] 90 % of control | dose: 400.0 mg/kg/injection, schedule: Q01DX001 (ip), vehicle: saline with Tween-80 90 % of control

C/C=C1/CN2CCC34c5ccccc5N(C)C23C(O)CC1C4(CO)C(=O)OC (stereo unspecified)
inactive: dose: 13.75 mg/kg/injection, schedule: Q01DX005 (ip), vehicle: saline + Tween-80 + alcohol 106 % of control | dose: 27.5 mg/kg/injection, schedule: Q01DX005 (ip), vehicle: saline + Tween-80 + alcohol 102 % of control | dose: 55.0 mg/kg/injection, schedule: Q01DX005 (ip), vehicle: saline + Tween-80 + alcohol 110 % of control | dose: 110.0 mg/kg/injection, schedule: Q01DX005 (ip), vehicle: saline + Tween-80 + alcohol 100 % of control

S=P(Oc1cc(Cl)cc(Cl)c1)(Oc1cc(Cl)cc(Cl)c1)Oc1cc(Cl)cc(Cl)c1
inactive: [15] 97 % of control | [16] 100 % of control | [17] 100 % of control

C=CC(=NC(C)(C)C)Nc1ccc(C(=O)OCC)cc1
inactive: dose: 50.0 mg/kg/injection, schedule: Q01DX009 (ip), vehicle: saline with Tween-80 113 % of control | dose: 100.0 mg/kg/injection, schedule: Q01DX009 (ip), vehicle: saline with Tween-80 106 % of control

C=C1CC/C=C(\C)C(=O)C(O)C2C1CC2(C)C (stereo unspecified)
inactive: dose: 0.37 mg/kg/injection, schedule: Q01DX009 (ip), vehicle: saline + alcohol 104 % of control | dose: 0.75 mg/kg/injection, schedule: Q01DX009 (ip), vehicle: saline + alcohol 104 % of control | dose: 1.5 mg/kg/injection, schedule: Q01DX009 (ip), vehicle: saline + alcohol 106 % of control | dose: 3.0 mg/kg/injection, schedule: Q01DX009 (ip), vehicle: saline + alcohol 105 % of control | dose: 6.0 mg/kg/injection, schedule: Q01DX009 (ip), vehicle: saline + alcohol 88 % of control

COC(=O)/C(=C1/OC(=O)C(c2ccccc2)=C1O)c1ccccc1
inactive: [5] 99 % of control | [6] 94 % of control | dose: 25.0 mg/kg/injection, schedule: Q01DX009 (ip), vehicle: Klucel (hydroxypropylcellulose) (HPC) 99 % of control | [8] 93 % of control | [11] 95 % of control

CSc1ccc2c(NCCCCCCCCNc3c4ccccc4nc4cc(SC)ccc34)c3ccccc3nc2c1
inactive: dose: 0.63 mg/kg/injection, schedule: Q01DX009 (ip), vehicle: other 117 % of control | dose: 1.25 mg/kg/injection, schedule: Q01DX009 (ip), vehicle: other 119 % of control | dose: 2.5 mg/kg/injection, schedule: Q01DX009 (ip), vehicle: other 123 % of control | dose: 10.0 mg/kg/injection, schedule: Q01DX009 (ip), vehicle: other 122 % of control

C1CCC2(CC1)CSSC2
inactive: dose: 6.25 mg/kg/injection, schedule: Q04DX002 (ip), vehicle: saline with Tween-80 101 % of control | dose: 12.5 mg/kg/injection, schedule: Q04DX002 (ip), vehicle: saline with Tween-80 99 % of control

[Br][Sn]([Br])([CH2][Sn]([Br])([c]1ccccc1)[c]1ccccc1)[c]1ccccc1
inactive: dose: 12.5 mg/kg/injection, schedule: Q01DX005 (ip), vehicle: Klucel (hydroxypropylcellulose) (HPC) 124 % of control

CCOc1cc(CC[N+](C)(C)C)cc2c1ccc1ccc(OC)c(OC)c12
inactive: dose: 6.25 mg/kg/injection, schedule: Q01DX005 (ip), vehicle: saline with Tween-80 99 % of control | dose: 12.5 mg/kg/injection, schedule: Q01DX005 (ip), vehicle: saline with Tween-80 100 % of control | dose: 25.0 mg/kg/injection, schedule: Q01DX005 (ip), vehicle: saline with Tween-80 96 % of control

CC(C)=CCC(OC(=O)C=C(C)C)c1cc(O)c2c(O)ccc(O)c2c1O.[Mn] (stereo unspecified)
inactive: dose: 25.0 mg/kg/injection, schedule: Q01DX001 (ip), vehicle: saline with Tween-80 111 % of control | dose: 50.0 mg/kg/injection, schedule: Q01DX001 (ip), vehicle: saline with Tween-80 108 % of control | [13] 111 % of control and 124 % of control | [14] 124 % of control

Cc1cnc(SC2C3CC4CC(C3)CC2C4)c(C)c1 (stereo unspecified)
inactive: [8] 99 % of control | [9] 94 % of control | [7] 88 % of control

N#Cc1ccc(-c2ccccc2)nc1Cl
inactive: dose: 25.0 mg/kg/injection, schedule: Q01DX005 (ip), vehicle: Klucel (hydroxypropylcellulose) (HPC) 98 % of control | [15] 98 % of control | [16] 93 % of control | [17] 102 % of control

Nc1ccc(N=C2C=CC(=O)C=C2)c(N)c1
inactive: dose: 12.5 mg/kg/injection, schedule: Q01DX009 (ip), vehicle: saline 102 % of control and 90 % of control | [10] 103 % of control and 112 % of control | [11] 105 % of control | [12] 112 % of control

CCCCCC(C(=O)O)(c1ccccc1)c1ccccc1
inactive: dose: 50.0 mg/kg/injection, schedule: Q01DX005 (ip), vehicle: saline with Tween-80 106 % of control | dose: 100.0 mg/kg/injection, schedule: Q01DX005 (ip), vehicle: saline with Tween-80 106 % of control | dose: 200.0 mg/kg/injection, schedule: Q01DX005 (ip), vehicle: saline with Tween-80 106 % of control
